Experimental data as given in BindingDB's records for doi:10.1016/j.ejmech.2022.114542 (National Institute of Pharmaceutical Education and …, 2022).

Test: Inhibition of ABCG2 efflux pump in multi-drug resistance human HL-60 cells assessed as reversal of daunorubicin sensitivity

IC50: 4.44 µM
SMILES: CO[C@@H]1[C@H](N(C)C(=O)c2ccccc2)C[C@H]2O[C@]1(C)n1c3ccccc3c3c4c(c5c6ccccc6n2c5c31)C(=O)NC4 [PKC-412]
